From article PMC8344233, “Anticancer activity and toxicity of new quaternary ammonium geldanamycin derivative salts and their mixtures with potentiators” (Journal of Enzyme Inhibition and Medicinal Chemistry, 2021)
Converted amounts (≈) assume the structure as drawn.

Columns and labels:
HepG2 = assay: MTT cytotoxicity assay, HepG2 (1st panel); type: cell-based, human; conditions: for IC50: Homo sapiens, HepG2, ± SD, MTT, 72 h; for selectivity index SI (HepG2): IC50 normal cell line CCD39Lu/IC50 HepG2
Experimental: (§1) Cell survival was measured as the percentage absorbance compared to the control (nontreated cells). […]
(§2) SI indexes were calculated from equation SI = IC50 normal cell line HDF/IC50 respective cancerous cell line (Table 2). A beneficial SI > 1.0 indicates a compound with efficacy against tumor cell greater than the toxicity against normal cells.
(§3) All experiments were carried out with human breast adenocarcinoma (MDA-MB-231 and MCF-7), hepatocellular carcinoma (HepG2), human cervical adenocarcinoma (HeLa) cancer cell lines, and human normal lung fibroblast (CCD39Lu) cell line. The cell line was purchased from the European Collection of Cells Cultures (ECACC, Salisbury, UK), and cultured in DMEM with phenol red supplemented with 10% (v/v) FBS, 1% (v/v) penicillin/streptomycin, and 1% (v/v) L-glutamine at 37 °C, in a humidified atmosphere containing 5% CO2.
(§4) The tested compounds were dissolved in DMSO to the final concentration 10 mM and stored […]
(§5) The cytotoxic effect of the tested compounds was determined by MTT assay. MDA-MB-231, MCF-7, HepG2, HeLa, and CCD39Lu cells were seeded in 96 wells plates at density 2x10^4 cells/well and incubated overnight under cell culture condition. Next, cells were treated with tested compounds at concentrations of 10 µM; 5 µM; 2.5 µM; 1.2 µM; 0.6 µM; 0.3 µM; 0.15 […]
(§6) µM. Moreover, GDM (for MCF-7) and 8 (for MCF-7 and MDA-MB-231) due to high cytotoxicity, were additionally tested at a lower concentration range of 2.5 µM; 1.2 µM; 0.6 µM; 0.3 µM; 0.15µM; 0.07 µM; 0.03 µM. DMSO was used as a control, and the concentration […]
(§7) Tested compounds were added to cells in the medium without phenol red. Cells were incubated 72 h at 37 °C in a humidified atmosphere containing 5% CO2.
(§8) Then, the medium was aspirated and MTT solution at a concentration of 0.59 mg/mL in cell culture medium was added to each well. Plates were incubated for 1.5 hours at 37 °C, and then plates were centrifuged for 3 minutes. The formazan crystals were dissolved in 200 µl DMSO and plates were agitated on a plate shaker at 300 –500 rpm for 10 minutes. Absorbance at 570 nm was measured using a plate reader (Biotek Instruments, Elx -800). Data were normalized to the mean absorption of control cells. All experiments were performed at least three times. […]

MDA-MB-231 = assay: MTT cytotoxicity assay, MDA-MB-231 (1st panel); type: cell-based, human; conditions: for IC50: Homo sapiens, MDA-MB-231, ± SD, MTT, 72 h; for selectivity index SI (MDA-MB-231): IC50 normal cell line CCD39Lu/IC50 MDA-MB-231
Experimental: as §1, §2, §3, §4, §5, §6, §7, §8

HeLa = assay: MTT cytotoxicity assay, HeLa (1st panel); type: cell-based, human; conditions: for IC50: Homo sapiens, HeLa, ± SD, MTT, 72 h; for selectivity index SI (HeLa): IC50 normal cell line CCD39Lu/IC50 HeLa
Experimental: as §1, §2, §3, §4, §5, §6, §7, §8

CCD39Lu = assay: MTT cytotoxicity assay, normal lung fibroblasts CCD39Lu; type: cell-based; conditions: Fibroblast, ± SD, healthy human lung fibroblasts, 72 h, read-out: IC50 CCD39Lu (toxicity in normal cells)
Experimental: as §1, §2, §3, §4, §5, §6, §7, §8

MCF-7 = assay: MTT cytotoxicity assay, MCF-7 (1st panel); type: cell-based, human; conditions: for IC50: Homo sapiens, MCF7, 72 h, ± SD, MTT, 72 h; for selectivity index SI (MCF-7): IC50 normal cell line CCD39Lu/IC50 MCF-7
Experimental: as §1, §2, §3, §4, §5, §6, §7, §8

U-87 = assay: SRB cytotoxicity assay, U-87 (2nd panel); type: cell-based, human; conditions: for IC50: Homo sapiens, U-87 MG, ± SD, SRB, 72 h; for selectivity index SIHDF (U-87): IC50 normal cell line HDF/IC50 U-87
Experimental: U-87MG cells (glioblastoma cell line) were cultured in Eagle’s Minimal Essential Medium. Human Dermal Fibroblasts cell line (HDF) was cultured in Fibroblast Basal Medium.
(§9) Each medium was supplemented with 10% fetal bovine serum, 1% L-glutamine, and 1% penicillin/streptomycin solution. The cell lines were kept in the incubator at 37◦C. The optimal plating density of cell lines was determined to be 5 × 104. All the cell lines and mediums were obtained from American Type Culture Collection (ATCC) supplied by LGC-Standards. The protein-staining SRB (Sigma-Aldrich) microculture colorimetric assay, developed by the National Cancer Institute (USA) for in vitro antitumor screening was used in this study, to estimate the cell number by providing a sensitive index of total cellular protein content, being linear to cell density. The monolayer cell culture was trypsinized and the cell count was adjusted to 5 × 10^4 cells. To each well of the 96 well microtiter plate, 0.1 mL of the diluted cell suspension (approximately […]) was added. After 24 hours, when a partial monolayer was formed, the supernatant was washed out and 100 μL of six different compound concentrations (0.1, 0.2, 1, 2, 10, and 20 μM) were added to the cells in microtitre plates. The tested compounds were dissolved in DMSO (containing 10 % of water) (100 μL) and the […]
(§10) lines. The cells were exposed to compounds for 72 hours at 37 °C in a humidified atmosphere (90% RH) containing 5% CO2. After that, 25 μL of 50 % trichloroacetic acid was added to the wells and the plates were incubated for 1 hour at 4◦C. The plates were then washed out with the distilled water to remove traces of medium and next dried by the air. The air-dried plates were stained with 100 μL of 0.4% sulforhodamine B (prepared in 1 % acetic acid) and kept for 30 minutes at room temperature. The unbound dye was removed by rapidly washing with 1% […]
(§11) acetic acid and then air dried overnight. The protein-bound dye was dissolved in 100 μL of 10 mM unbuffered Tris base (pH 10.5) for optical density determination at 490 nm. All cytotoxicity experiments were performed three times. Cell survival was measured as the percentage absorbance compared to the control (nontreated cells). Cytarabine (ara-C) and GDM were used as the internal standards. Additionally biological assays were performed in Human Dermal Fibroblasts cell line (HDF) in aim to evaluate cytotoxicity of GDM and its 1-13 analogs in healthy cells. SI indexes were calculated from equation SI = IC50 normal cell line HDF/IC50 respective cancerous cell line (Table 2). A beneficial SI > 1.0 indicates a compound with efficacy against tumor cell greater than the toxicity against normal cells. […]

HDF = assay: SRB cytotoxicity assay, human dermal fibroblasts HDF; type: cell-based; conditions: 72 h, ± SD, mixtures equimolar 1:1, read-out: IC50 HDF (toxicity in normal cells)
Experimental: (§12) Medium. Human Dermal Fibroblasts cell line (HDF) was cultured in Fibroblast Basal Medium.
as §9, §10, §11

SKOV-3 = assay: SRB cytotoxicity assay, SKOV-3 (2nd panel); type: cell-based, human; conditions: for IC50: Homo sapiens, SK-OV-3, ± SD, SRB, 72 h, mixtures equimolar 1:1; for selectivity index SIHDF (SKOV-3): IC50 normal cell line HDF/IC50 SKOV-3
Experimental: (§13) Human cancer cells SKBR-3 (human breast cancer cell line) and SKOV-3 (ovarian cancer cell line) were cultured in McCoy’s Modified Medium. […]
as §12, §9, §10, §11

A-549 = assay: SRB cytotoxicity assay, A-549 (2nd panel); type: cell-based, human; conditions: for IC50: Homo sapiens, A549, ± SD, SRB, 72 h; for selectivity index SIHDF (A-549): IC50 normal cell line HDF/IC50 A-549
Experimental: as §12, §9, §10, §11

PC-3 = assay: SRB cytotoxicity assay, PC-3 (2nd panel); type: cell-based, human; conditions: for IC50: Homo sapiens, PC-3, ± SD, SRB, 72 h, mixtures equimolar 1:1; for selectivity index SIHDF (PC-3): IC50 normal cell line HDF/IC50 PC-3
Experimental: as §12, §9, §10, §11

physchem = conditions: water, Solubility SH2O
SKBR-3 = assay: SRB cytotoxicity assay, SKBR-3 (2nd panel); type: cell-based, human; conditions: for IC50: Homo sapiens, SK-BR-3, ± SD, SRB, 72 h, mixtures equimolar 1:1; for selectivity index SIHDF (SKBR-3): IC50 normal cell line HDF/IC50 SKBR-3
Experimental: as §13, §12, §9, §10, §11

cancer cell lines = assay: Cytotoxicity, values summarised over several cancer cell lines; type: cell-based, human; conditions: Homo sapiens, approximate level over the three cancer cell lines; mixtures equimolar 1:1; read-out: IC50 in SKBR-3, SKOV-3 and PC-3
Experimental: Human cancer cells SKBR-3 (human breast cancer cell line) and SKOV-3 (ovarian cancer cell line) were cultured in McCoy’s Modified Medium. Human cancer cells PC-3 (human prostate cancer cell line) were cultured in F-12K medium, as well as A549 cell line (lung cancer cell line). U-87MG cells (glioblastoma cell line) were cultured in Eagle’s Minimal Essential Medium. Human Dermal Fibroblasts cell line (HDF) was cultured in Fibroblast Basal Medium.
as §9, §10
acetic acid and then air dried overnight. The protein-bound dye was dissolved in 100 μL of 10 mM unbuffered Tris base (pH 10.5) for optical density determination at 490 nm. All cytotoxicity experiments were performed three times. Cell survival was measured as the percentage absorbance compared to the control (nontreated cells). Cytarabine (ara-C) and GDM were used as the internal standards. Additionally biological assays were performed in Human Dermal Fibroblasts cell line (HDF) in aim to evaluate cytotoxicity of GDM and its 1-13 analogs in healthy cells. SI indexes were calculated from equation SI = IC50 normal cell line HDF/IC50 respective cancerous cell line (Table 2). A beneficial SI > 1.0 indicates a compound with efficacy against tumor cell greater than the toxicity against normal cells.
as §3, §4, §5

Structure (SMILES)	IC50 (HepG2) [µM]	selectivity index SI (HepG2) (HepG2)	IC50 (MDA-MB-231) [µM]	selectivity index SI (MDA-MB-231) (MDA-MB-231)	IC50 (HeLa) [µM]	selectivity index SI (HeLa) (HeLa)	IC50 (CCD39Lu) [µM]	IC50 (MCF-7) [µM]	selectivity index SI (MCF-7) (MCF-7)	CC50 (HDF) [µM]	IC50 (SKOV-3) [µM]	selectivity index SIHDF (SKOV-3) (SKOV-3)	IC50 (PC-3) [µM]	selectivity index SIHDF (PC-3) (PC-3)	IC50 (SKBR-3) [µM]	selectivity index SIHDF (SKBR-3) (SKBR-3)	other results
CO[C@H]1/C=C\C=C(/C)C(=O)NC2=CC(=O)C(NC3CCC(O)CC3)=C(C[C@@H](C)C[C@H](OC)[C@H](O)[C@@H](C)/C=C(\C)[C@@H]1OC(N)=O)C2=O (stereo partly drawn) [Compound 4]	> 10	> 1	> 10	> 1	> 10	> 1	> 10	> 10	> 1	–	–	–	–	–	–	–	solubility (Water solubility SH2O): 40 µg/mL (≈ 62.1 µM)
CO[C@H]1/C=C\C=C(/C)C(=O)NC2=CC(=O)C(NC3CCN(Cc4ccccc4)CC3)=C(C[C@@H](C)C[C@H](OC)[C@H](O)[C@@H](C)/C=C(\C)[C@@H]1OC(N)=O)C2=O [Compound 5]	1.63 ± 0.49	9.39	2.28 ± 0.54	6.71	1.56 ± 0.14	9.81	15.3 ± 0.12	1.84 ± 0.57	8.32	–	–	–	–	–	–	–	–
CO[C@H]1/C=C\C=C(/C)C(=O)NC2=CC(=O)C(NC3CCN(C(C)=O)CC3)=C(C[C@@H](C)C[C@H](OC)[C@H](O)[C@@H](C)/C=C(\C)[C@@H]1OC(N)=O)C2=O [Compound 6]	3.38 ± 0.13	> 2.96	3.16 ± 0.89	> 3.16	4.75 ± 0.35	> 2.11	> 10	0.61 ± 0.14	> 16.39	–	–	–	–	–	–	–	–
CO[C@H]1/C=C\C=C(/C)C(=O)NC2=CC(=O)C(NC3CCN(S(C)(=O)=O)CC3)=C(C[C@@H](C)C[C@H](OC)[C@H](O)[C@@H](C)/C=C(\C)[C@@H]1OC(N)=O)C2=O [Compound 7]	1.68 ± 0.32	7.50	2.36 ± 0.35	5.34	1.61 ± 0.61	7.83	12.6 ± 0.21	0.96 ± 0.51	13.13	–	–	–	–	–	–	–	–
CO[C@H]1/C=C\C=C(/C)C(=O)NC2=CC(=O)C(NC3C[N+]4(Cc5ccc([N+](=O)[O-])o5)CCC3CC4)=C(C[C@@H](C)C[C@H](OC)[C@H](O)[C@@H](C)/C=C(\C)[C@@H]1OC(N)=O)C2=O (stereo partly drawn) [Compound 11]	8.86 ± 0.17	> 1.13	3.93 ± 1.6	> 2.54	8.91 ± 3.19	> 1.12	> 10	4.67 ± 2	> 2.14	7.91 ± 0.91	6.04 ± 0.38	1.31	6.22 ± 0.13	1.27	6.49 ± 0.07	1.22	IC50 (U-87): 6.06 ± 0.58 µM; selectivity index SIHDF (U-87) (U-87): 1.31; IC50 (A-549): 6.83 ± 0.32 µM; selectivity index SIHDF (A-549) (A-549): 1.16; solubility (physchem): 2300 µg/mL
CO[C@H]1/C=C\C=C(/C)C(=O)NC2=CC(=O)C(NC3C[N+]4(Cc5ccsc5Br)CCC3CC4)=C(C[C@@H](C)C[C@H](OC)[C@H](O)[C@@H](C)/C=C(\C)[C@@H]1OC(N)=O)C2=O (stereo partly drawn) [Compound 12]	> 10	> 1	5.01 ± 2.15	> 2.00	9.12 ± 1.81	> 1.10	> 10	2.65 ± 1.09	> 3.77	13.9 ± 0.42	8.02 ± 0.17	1.73	7.94 ± 0.03	1.75	8.49 ± 0.36	1.64	IC50 (U-87): 8.58 ± 0.19 µM; selectivity index SIHDF (U-87) (U-87): 1.62; IC50 (A-549): 8.94 ± 0.27 µM; selectivity index SIHDF (A-549) (A-549): 1.56; solubility (physchem): 4500 µg/mL
COc1cccc2c1C(=O)c1c(O)c3c(c(O)c1C2=O)C[C@@](O)(C(=O)CO)C[C@@H]3O[C@H]1C[C@H](N)[C@H](O)[C@H](C)O1 [DOX, doxorubicin, reference compound]	–	–	–	–	–	–	–	–	–	1.52 ± 0.03	0.74 ± 0.06	2.05	0.68 ± 0.01	2.24	0.72 ± 0.04	2.11	IC50 (cancer cell lines): ~0.7 µM
